This is an account of results in patent US20230079045A1 (priority 2019, published 2023).

In one assay the test system is IFVA/Mal/302/54. The assay can be described thus: cytopathic effect (CPE) antiviral test in MDCK cells, IFVA/Mal/302/54. The settings on record: unidentified influenza virus, MDCK, 120 h, read-out: EC50(IFVA/Mal/302/54), MDCK cells, CPE method, CCK-8 cell viability, 5 days. The format is cell-based, influenza virus.
For another assay, the system named is IFVA/Weiss/43. The assay can be described thus: cytopathic effect (CPE) antiviral test in MDCK cells, IFVA/Weiss/43. The format is cell-based, influenza virus. On the technique in general: Damage to the host cells serves as the signal in cytopathic effect assays.
Where [1] appears, read: unidentified influenza virus, MDCK, 120 h, read-out: EC50(IFVA/Weiss/43), MDCK cells, CPE method, CCK-8 cell viability, 5 days.

Read-outs that look alike come from different tables or passages of the source. A value given as a limit tells only on which side of the number the result lay.

For the compound `Cn1nnc(C(c2ccccc2)N2CCN(C(=O)c3cc(-c4nc5cc(NC(=O)[C@H]6C[C@@H]6F)ccc5o4)ccn3)CC2)n1` (stereo partly drawn) [Compound 27, (1R,2S)-2-fluoro-N-(2-(2-(4-((2-methyl-2H-tetrazol-5-yl)(phenyl)methyl)piperazine-1-carbonyl)pyridin-4-yl)benzo[d]oxazol-5-yl)cyclopropane-1-carboxamide], the EC50 in the assay on IFVA/Mal/302/54 turned out to be 127 nM; in the assay with IFVA/Weiss/43 (setting [1]), 33 nM.

In the case of `Cn1nnc(C(c2ccccc2)N2CCN(C(=O)c3cc(-c4nc5cc(NC(=O)[C@H]6C[C@H]6F)ccc5o4)ccn3)CC2)n1` (stereo partly drawn) [Compound 28, (1R,2R)-2-fluoro-N-(2-(2-(4-((2-methyl-2H-tetrazol-5-yl)(phenyl)methyl)piperazine-1-carbonyl)pyridin-4-yl)benzo[d]oxazol-5-yl)cyclopropane-1-carboxamide], the EC50 with IFVA/Mal/302/54 came out at 27 nM; with IFVA/Weiss/43 (setting [1]) it was 17 nM.

Regarding `O=C(Nc1ccc2oc(-c3ccnc(C(=O)N4CCN(C(c5ccccc5)c5nnn(C(F)F)n5)CC4)c3)nc2c1)[C@@H]1C[C@H]1F` (stereo partly drawn) [Compound 30, (1S,2R)-2-fluoro-N-(2-(2-(4-((2-difluoromethyl-2H-tetrazol-5-yl)(phenyl)methyl)piperazine-1-carbonyl)pyridin-4-yl)benzo[d]oxazol-5-yl)cyclopropane-1-carboxamide], the figures for the EC50 in the assay with IFVA/Mal/302/54 and in the assay with IFVA/Weiss/43 (setting [1]) were 27 nM and 12 nM, respectively.

As for `O=C(Nc1ccc2oc(-c3ccnc(C(=O)N4CCN(C(c5ccccc5)c5nnn(C(F)F)n5)CC4)c3)nc2c1)[C@H]1C[C@@H]1F` (stereo partly drawn) [Compound 32, (1R,2S)-2-fluoro-N-(2-(2-(4-((2-difluoromethyl-2H-tetrazol-5-yl)(phenyl)methyl)piperazine-1-carbonyl)pyridin-4-yl)benzo[d]oxazol-5-yl)cyclopropane-1-carboxamide], the EC50 in the assay on IFVA/Mal/302/54 stood at 3 nM; with IFVA/Weiss/43 (setting [1]), 26 nM.

For `O=C(Nc1ccc2oc(-c3ccnc(C(=O)N4CCN(C(c5ccccc5)c5nnn(C(F)F)n5)CC4)c3)nc2c1)[C@H]1C[C@H]1F` (stereo partly drawn) [Compound 33, (1R,2R)-2-fluoro-N-(2-(2-(4-((2-difluoromethyl-2H-tetrazol-5-yl)(phenyl)methyl)piperazine-1-carbonyl)pyridin-4-yl)benzo[d]oxazol-5-yl)cyclopropane-1-carboxamide], the results for the EC50 with IFVA/Mal/302/54 and in the assay with IFVA/Weiss/43 (setting [1]) were 31 nM and 16 nM, respectively.

Regarding `CS(=O)(=O)Nc1ccc2oc(-c3ccnc(C(=O)N4CCN(C(c5ccccc5)c5nnn(C(F)F)n5)CC4)c3)nc2c1` (stereo not shown) [Compound 34], the EC50 with IFVA/Mal/302/54 and with IFVA/Weiss/43 (setting [1]) was more than 10000 nM in each case.

Turning to `Cn1nnc(C(c2ccccc2)N2CCN(C(=O)c3cc(-c4nc5cc(NC(=O)C6CC6)ccc5o4)ccn3)CC2)n1` (stereo not shown) [Compound 35, N-(2-(2-(4-((2-methyl-2H-tetrazol-5-yl)(phenyl)methyl)piperazine-1-carbonyl)pyridin-4-yl)benzo[d]oxazol-5-yl)cyclopropanecarboxamide], the EC50 in the assay on IFVA/Mal/302/54 is 19 nM; with IFVA/Weiss/43 (setting [1]), 12 nM.

With `O=C(c1cc(-c2nc3cc(N4CCCC4=O)ccc3o2)ccn1)N1CCN(C(c2ccccc2)c2nnn(C(F)F)n2)CC1` (stereo not shown) [Compound 37, 1-(2-(2-(4-((2-(difluoromethyl)-2H-tetrazol-5-yl)(phenyl)methyl)piperazine-1-carbonyl)pyridin-4-yl)benzo[d]oxazol-5-yl)pyrrolidin-2-one], the EC50 was 22 nM with IFVA/Mal/302/54 and 17 nM with IFVA/Weiss/43 (setting [1]).

For the compound `Cn1nnc(C(c2ccccc2)N2CCN(C(=O)c3cc(-c4nc5cc(O[C@H]6CCOC6)ccc5o4)ccn3)CC2)n1` (stereo partly drawn) [Compound 38, (4-((2-methyl-2H-tetrazol-5-yl)(phenyl)methyl)piperazin-1-yl)(4-(5-(((S)-tetrahydrofuran-3-yl)oxy)benzo[d]oxazol-2-yl)pyridin-2-yl)methanone], the EC50 with IFVA/Mal/302/54 came to 18 nM; with IFVA/Weiss/43 (read-out: EC50(IFVA/Weiss/43), MDCK cells, CPE method, CCK-8 cell viability, 5 days), 20 nM.

In the case of `O=C(c1cc(-c2nc3cc(O[C@H]4CCOC4)ccc3o2)ccn1)N1CCN(C(c2ccccc2)c2nnn(C(F)F)n2)CC1` (stereo partly drawn) [Compound 39, (4-((2-(difluoromethyl)-2H-tetrazol-5-yl)(phenyl)methyl)piperazin-1-yl)(4-(5-(((S)-tetrahydrofuran-3-yl)oxy)benzo[d]oxazol-2-yl)pyridin-2-yl)methanone], the EC50 in the assay on IFVA/Mal/302/54 worked out at 11 nM; with IFVA/Weiss/43 (setting [1]), 4 nM.

Consider `CC(=O)Nc1ccc2oc(-c3ccnc(C(=O)N4CCN(C(c5ccccc5)c5nnn(C(F)F)n5)CC4)c3)nc2c1` (stereo not shown) [Compound 40, N-(2-(2-(4-((2-(difluoromethyl)-2H-tetrazol-5-yl)(phenyl)methyl)piperazine-1-carbonyl)pyridin-4-yl)benzo[d]oxazol-5-yl)acetamide], for which the EC50 in the assay with IFVA/Mal/302/54 was 24 nM; in the assay with IFVA/Weiss/43 (setting [1]) it was 16 nM.

On to `Cn1nnc(C(c2ccccc2)N2CCN(C(=O)c3cc(-c4nc5cc(OC(F)F)ccc5o4)ccn3)CC2)n1` (stereo not shown) [Compound 44, (4-(5-(difluoromethoxy)benzo[d]oxazol-2-yl)pyridin-2-yl)(4-((2-methyl-2H-tetrazol-5-yl)(phenyl)methyl)piperazin-1-yl)methanone], for which the EC50 in the assay with IFVA/Mal/302/54 was found to be 65 nM; in the assay with IFVA/Weiss/43 (setting [1]), 110 nM.

On to `CC(=O)Nc1ccc2oc(-c3ccnc(C(=O)N4CCC(O)(C(c5ccccc5)c5nnn(C)n5)CC4)c3)nc2c1` (stereo not shown) [Compound 47, N-(2-(2-(4-hydroxy-4-((2-methyl-2H-tetrazol-5-yl)(phenyl)methyl)piperidine-1-carbonyl)pyridin-4-yl)benzo[d]oxazol-5-yl)acetamide], for which the EC50 was 81 nM in the assay with IFVA/Mal/302/54 and 35 nM in the assay on IFVA/Weiss/43 (setting [1]).

For `CC(=O)Nc1ccc2oc(-c3ccnc(C(=O)N4CCC(=C(c5ccccc5)c5nnn(C)n5)CC4)c3)nc2c1` [Compound 49, N-(2-(2-(4-((2-methyl-2H-tetrazol-5-yl)(phenyl)methylene)piperidine-1-carbonyl)pyridin-4-yl)benzo[d]oxazol-5-yl)acetamide], the EC50 in the assay with IFVA/Mal/302/54 worked out at 180 nM; with IFVA/Weiss/43 (setting [1]), 112 nM.

`Cn1nnc(C(c2ccccc2)N2CCN(C(=O)c3cc(-c4nc5cc(N6CCOC6=O)ccc5o4)ccn3)CC2)n1` (stereo not shown) [Compound 50, 3-(2-(2-(4-((2-methyl-2H-tetrazol-5-yl)(phenyl)methyl)piperazine-1-carbonyl)pyridin-4-yl)benzo[d]oxazol-5-yl)oxazolidin-2-one]: the results for the EC50 in the assay with IFVA/Mal/302/54 and in the assay with IFVA/Weiss/43 (setting [1]) were 120 nM and 242 nM, respectively.

On to `COC(=O)Nc1ccc2oc(-c3ccnc(C(=O)N4CCN(C(c5ccccc5)c5nnn(C)n5)CC4)c3)nc2c1` (stereo not shown) [Compound 51, Methyl (2-(2-(4-((2-methyl-2H-tetrazol-5-yl)(phenyl)methyl)piperazine-1-carbonyl)pyridin-4-yl)benzo[d]oxazol-5-yl)carbamate], for which the results for the EC50 in the assay on IFVA/Mal/302/54 and with IFVA/Weiss/43 (setting [1]) were 34 nM and 84 nM, respectively.

Take `CC(=O)Nc1ccc2oc(-c3ccnc(C(=O)N4CCN(C(c5ccccc5)c5nnn(C(F)F)n5)CC4)c3F)nc2c1` (stereo not shown) [Compound 56, N-(2-(2-(4-((2-(difluoromethyl)-2H-tetrazol-5-yl)(phenyl)methyl)piperazine-1-carbonyl)-3-fluoropyridin-4-yl)benzo[d]oxazol-5-yl)acetamide]: the figures for the EC50 in the assay with IFVA/Mal/302/54 and with IFVA/Weiss/43 (setting [1]) were 33 nM and 17 nM, respectively.

For the compound `CC(=O)Nc1cc2nc(-c3ccnc(C(=O)N4CCN(C(c5ccccc5)c5nnn(C(F)F)n5)CC4)c3)oc2cc1F` (stereo not shown) [Compound 59, N-(2-(2-(4-((2-(difluoromethyl)-2H-tetrazol-5-yl)(phenyl)methyl)piperazine-1-carbonyl)pyridin-4-yl)-6-fluorobenzo[d]oxazol-5-yl)acetamide], the EC50 with IFVA/Mal/302/54 is 58 nM; in the assay with IFVA/Weiss/43 (setting [1]), 56 nM.

For the compound `CC(=O)Nc1ccc2nn(-c3ccnc(C(=O)N4CCN(C(c5ccccc5)c5nnn(C(F)F)n5)CC4)c3)cc2c1` (stereo not shown) [Compound 60, N-(2-(2-(4-((2-(difluoromethyl)-2H-tetrazol-5-yl)(phenyl)methyl)piperazine-1-carbonyl)pyridin-4-yl)-2H-indazol-5-yl)acetamide], the EC50 in the assay with IFVA/Mal/302/54 came to 84 nM; in the assay on IFVA/Weiss/43 (setting [1]), 54 nM.

Consider `CC(=O)Nc1cc(F)c2oc(-c3ccnc(C(=O)N4CCN(C(c5ccccc5)c5nnn(C(F)F)n5)CC4)c3)nc2c1` (stereo not shown) [Compound 61, N-(2-(2-(4-((2-(difluoromethyl)-2H-tetrazol-5-yl)(phenyl)methyl)piperazine-1-carbonyl)pyridin-4-yl)-7-fluorobenzo[d]oxazol-5-yl)acetamide], for which the EC50 is 78 nM in the assay with IFVA/Mal/302/54 and 28 nM in the assay with IFVA/Weiss/43 (setting [1]).

On to `CC(=O)Nc1ccc2nc(-c3ccnc(C(=O)N4CCN(C(c5ccccc5)c5nnn(C(F)F)n5)CC4)c3)oc2c1` (stereo not shown) [Compound 70, N-(2-(2-(4-((2-(difluoromethyl)-2H-tetrazol-5-yl)(phenyl)methyl)piperazine-1-carbonyl)pyridin-4-yl)benzo[d]oxazol-6-yl)acetamide], for which the EC50 with IFVA/Mal/302/54 and in the assay on IFVA/Weiss/43 (setting [1]) was 32 nM in each case.

As for `O=C(c1cc(-c2nc3cc(N4CCCC4)ccc3o2)ccn1)N1CCN(C(c2ccccc2)c2nnn(C(F)F)n2)CC1` (stereo not shown) [Compound 71, (4-((2-(difluoromethyl)-2H-tetrazol-5-yl)(phenyl)methyl)piperazin-1-yl)(4-(5-(pyrrolidin-1-yl)benzo[d]oxazol-2-yl)pyridin-2-yl)methanone], the EC50 is 52 nM in the assay on IFVA/Mal/302/54 and 31 nM in the assay with IFVA/Weiss/43 (setting [1]).

Consider `O=C(Nc1ccc2oc(-c3ccnc(C(=O)N4C5CCC4CN(C(c4ccccc4)c4nnn(C(F)F)n4)C5)c3)nc2c1)C1CC1` (stereo not shown) [Compound 175, N-(2-(2-(3-((2-(difluoromethyl)-2H-tetrazol-5-yl)(phenyl)methyl)-3,8-diazabicyclo[3.2.1]octane-8-carbonyl)pyridin-4-yl)benzo[d]oxazol-5-yl)cyclopropanecarboxamide], for which the EC50 is 21 nM in the assay on IFVA/Mal/302/54 and 13 nM in the assay on IFVA/Weiss/43 (setting [1]).
